Numbers after ± are expanded uncertainties.
Conditions: Gas

S [hydrogen sulfide]
Mass density=0.74 kg/m3
Conditions	viscosity [mPa·s]
291.61 K	0.01186 ± 0.00034
292.3 K	0.01186 ± 0.00034
292.46 K	0.01187 ± 0.00034
292.77 K	0.01188 ± 0.00034
296.89 K	0.01207 ± 0.00034
297.01 K	0.01206 ± 0.00034
323.94 K	0.01319 ± 0.00035
323.96 K	0.01318 ± 0.00035
350.47 K	0.01429 ± 0.00037
350.59 K	0.0143 ± 0.00037
378.01 K	0.01543 ± 0.00038
378.19 K	0.01544 ± 0.00038
405.76 K	0.01656 ± 0.00039
405.86 K	0.01657 ± 0.00039
433.66 K	0.01769 ± 0.00041
433.81 K	0.0177 ± 0.00041
461.72 K	0.01881 ± 0.00042
461.92 K	0.01882 ± 0.00042
490.09 K	0.01993 ± 0.00043
490.2 K	0.01992 ± 0.00043
518.68 K	0.021 ± 0.00043
518.75 K	0.021 ± 0.00043
542.48 K	0.0219 ± 0.00046
542.61 K	0.0219 ± 0.00046
565.19 K	0.02274 ± 0.00046
565.29 K	0.02275 ± 0.00046
593.95 K	0.02379 ± 0.00047
594.02 K	0.02379 ± 0.00047
623.07 K	0.02482 ± 0.00048
623.19 K	0.02482 ± 0.00048
652.3 K	0.02584 ± 0.0005
652.32 K	0.02584 ± 0.0005
681.36 K	0.02682 ± 0.00051
682.03 K	0.02684 ± 0.00051

C [methane]
Conditions	viscosity [mPa·s]
289.05 K, Mass density=0.498 kg/m3	0.01081 ± 0.00023
290.41 K, Mass density=0.498 kg/m3	0.01083 ± 0.00023
291.93 K, Mass density=0.344 kg/m3	0.01089 ± 0.00023
292.96 K, Mass density=0.344 kg/m3	0.01092 ± 0.00023
296.43 K, Mass density=0.498 kg/m3	0.01103 ± 0.00023
296.57 K, Mass density=0.498 kg/m3	0.01105 ± 0.00023
297.08 K, Mass density=0.344 kg/m3	0.01106 ± 0.00023
323.43 K, Mass density=0.498 kg/m3	0.01189 ± 0.00024
323.86 K, Mass density=0.344 kg/m3	0.01191 ± 0.00024
350.55 K, Mass density=0.344 kg/m3	0.01273 ± 0.00026
350.64 K, Mass density=0.498 kg/m3	0.01272 ± 0.00026
378.15 K, Mass density=0.344 kg/m3	0.01356 ± 0.00026
378.25 K, Mass density=0.498 kg/m3	0.01355 ± 0.00026
405.88 K, Mass density=0.344 kg/m3	0.01436 ± 0.00027
406.03 K, Mass density=0.498 kg/m3	0.01436 ± 0.00027
433.83 K, Mass density=0.344 kg/m3	0.01514 ± 0.00028
434.02 K, Mass density=0.498 kg/m3	0.01514 ± 0.00028
461.75 K, Mass density=0.498 kg/m3	0.0159 ± 0.00029
461.85 K, Mass density=0.344 kg/m3	0.01591 ± 0.00029
490.13 K, Mass density=0.344 kg/m3	0.01666 ± 0.00029
490.15 K, Mass density=0.498 kg/m3	0.01665 ± 0.00029
518.8 K, Mass density=0.498 kg/m3	0.0174 ± 0.0003
518.83 K, Mass density=0.344 kg/m3	0.01739 ± 0.0003
542.36 K, Mass density=0.498 kg/m3	0.01798 ± 0.00031
542.6 K, Mass density=0.344 kg/m3	0.01799 ± 0.00031
565.1 K, Mass density=0.498 kg/m3	0.01854 ± 0.00032
565.38 K, Mass density=0.344 kg/m3	0.01856 ± 0.00032
593.84 K, Mass density=0.498 kg/m3	0.01924 ± 0.00032
594.08 K, Mass density=0.344 kg/m3	0.01925 ± 0.00032
623.05 K, Mass density=0.498 kg/m3	0.01993 ± 0.00034
623.33 K, Mass density=0.344 kg/m3	0.01995 ± 0.00033
652.07 K, Mass density=0.498 kg/m3	0.02061 ± 0.00036
652.41 K, Mass density=0.344 kg/m3	0.02062 ± 0.00034
681.93 K, Mass density=0.498 kg/m3	0.02127 ± 0.00035
682.14 K, Mass density=0.344 kg/m3	0.0213 ± 0.00035

From the NIST ThermoML archive (doi:10.1021/je200371n)
